# Entries after “also recorded” stand apart in the source; their conditions may differ.
# Columns and labels:
# [1] = test system: spinal cord of EAE mice; assay: Histology of spinal cord sections from EAE mice (LFB, H&E, GST-π, NG2); format: in vivo, mouse; conditions: for LFB (myelin) staining in areas infiltrated by lymphocytes / lymphocyte / immune cell infiltration (H&E): 10 mg/kg, relapse phase
# Source text: FIG. 26. […] Spinal cords were isolated from mice representative of the average group scores during the relapse phase of EAE, sectioned and stained with Luxol Fast Blue and H&E (left panel) and Luxol Fast Blue only (right panel). Arrows point to regions of lymphocyte infiltration.
# [2] = test system: OPCs; assay: Western blot of MBP and MOG in compound treated OPCs; format: cell-based, rat; conditions: OPCs treated 6 days
# Source text: FIG. 2A-C. Neurotransmitter receptor modulating agents induce the differentiation of OPCs to a myelinating oligodendrocyte cell fate. (A) Western blot analysis of OPCs treated with compounds at EC90 concentrations for 6 days. Total protein was isolated from cell pellets and probed for myelin basic protein (MBP) and myelin oligodendrocyte glycoprotein (MOG) using specific antibodies. (B-C) Quantitative RT-PCR (qRT-PCR) analysis of OPCs treated with compounds at EC90 concentrations for 6 days. Total RNA was isolated from cell pellets and reverse transcribed. MBP and MOG expression was quantified using specific probes and Taqman-based qRT-PCR. Expression was normalized to the internal controls β-actin and GAPDH. Fold change in gene expression over DMSO treated control cells is plotted for MBP (B) and MOG (C).
# FIG. 13. […] After 6 days in culture, cells were analyzed for MBP and MOG expression by Western blot.
# [3] = test system: dopamine D2 and D3 receptor; format: cell-based, rat
# Source text: Error bars indicate standard deviations of 3 replicate measurements.
# (§1) OPCs express mAChRs, predominantly subtypes M1, M3, and M5 (F. Ragheb et al., J Neurochem, 77, 1396 (2001)). […] Activation of M1 and M3 mAChRs is coupled to downstream signal transduction events through phospholipase C, which results in increased intracellular calcium concentrations (F. Ragheb et al., J Neurochem, 77, 1396 (2001)) (FIG. 23C). M2 and M4 mAChR activation inhibits adenylatecyclase, leading to decreased intracellular cAMP levels (C. C. Felder, FASEB J, 9, 619 (1995); M. Lopez-Ilasaca et al., Science, 275, 394 (1997)). […] Acetylcholine is a known regulator of OPC proliferation and, as such, muscarinic receptor subtypes represent a reasonable class of therapeutic targets for the modulation of OPC proliferation and differentiation (F. De Angelis et al., Dev Neurobiol, (2011)).
# [4] = test system: OPCs; assay: qRT-PCR of cell cycle genes in OPCs; format: cell-based, rat; conditions: benztropine 1.5 uM
# Source text: as §1
# [5] = test system: splenocytes of normal mice; assay: Immune cell populations and cytokine production in splenocytes of normal mice; format: in vivo, mouse; conditions: 10 mg/kg i.p., 14 days; for cytokine production (IL2, IL10, TNF, IFN-γ producing CD4+ T-cells) / number of B cells: 10 mg/kg
# Source text: Total splenocytes were isolated from the mice, stimulated with PMA and ionomycin and analyzed for various populations of immune cells and cytokine secretion after 48 hrs. Protein transport was blocked in cells used for cytokine analysis using monoeiosin. […] Error bars indicate standard deviation of the mean within each group of 5 mice.
# The primary immunological processes involved in MS and EAE are T-cell mediated and the primary treatment paradigms are based on immunomodulatory drugs (T. Kopadze et al., Arch Neurol, 63, 1572 (2006); J. M. Greer et al., J Immunol, 180, 6402 (2007), M. P. Pender and J. M. Greer, curr Allergy Asthma Rep, 7, 285 (2007)).
# [6] = spinal cord sections of EAE mice
smiles,measurement,setting,value
CN1[C@@H]2CC[C@H]1C[C@@H](OC(c1ccccc1)c1ccccc1)C2 [benztropine],LFB (myelin) staining in areas infiltrated by lymphocytes,[1],a large number of immune cell infiltrated areas stained positive for LFB
same,lymphocyte / immune cell infiltration (H&E),[1],significant infiltration by H&E reactive immune cells
same,LFB (myelin) staining in areas infiltrated by lymphocytes,[1]; listed as Benztropine,significantly increased LFB staining
same,lymphocyte / immune cell infiltration (H&E),[1]; listed as Benztropine,does not block lymphocyte infiltration
same,number of GST-π positive mature oligodendrocytes,"[1]; spinal cord of EAE mice, vehicle ~500",1100 per field
same,GST-π positive cells versus vehicle,[1]; [6],increased GST-π positive cells
same,number of NG2 positive cells versus vehicle,[1]; [6],did not differ significantly; also recorded: no change
same,MBP and MOG expression (Western blot),[2],positive
same,MBP and MOG expression (Western blot),[2]; listed as Benztropine,induces differentiation of OPCs to mature oligodendrocytes
same,effect of quinpirole or haloperidol on benztropine induced differentiation / dopamine D2 and D3 receptor signaling,[3],"neither the dopamine receptor antagonist haloperidol, nor the dopamine receptor agonist quinpirole affected; also recorded: no effect"
same,"transcript levels of cyclin D1, cyclin D2, c-Fos, c-Jun",[4],"significantly decreased; also recorded: downregulation in cell cycle genes such as Cyclin D1, Cyclin D2, c-Fos, c-Jun"
same,"number of total splenocytes, CD4+, CD8+, CD4+/CD44Hi and CD8+/CD44Hi T-cells",[5],no effect
same,"cytokine production (IL2, IL10, TNF, IFN-γ producing CD4+ T-cells)",[5],no effect on cytokine production
same,number of B cells,[5],minor but significant decrease
same,"cytokine production (IL2, IL10, TNF, IFN-γ producing CD4+ T-cells)",[5]; listed as Benztropine,no effect
same,number of B cells,[5]; listed as Benztropine,no effect
